The numbers were not newly measured in PubChem BioAssay AID1259409 (Chemical Carcinogenesis Research Information System (CCRIS), 2018), which cites them from elsewhere.

SMILES strings stand for the structures.

The subject of the data set is rodent chemically induced tumor inhibition, incidence and multiplicity. Briefly: CCRIS tumor inhibitor studies.

In the case of `N[C@@H](CS)C(=O)O`, the “tumour outcome (control, treated, inhibition, significance)” value is reported as 59%, 61%, -3%, not significant (Carcinogen: 7,12-DIMETHYLBENZ[A]ANTHRACENE, 57-97-6, Dose [Inhibitor]: 0.03 NMOL/G DIET DAILY FOR 17 WK STARTING 1 WK PRIOR TO CARCINOGEN TREATMENT AND CONTINUING THROUGH THE END OF THE STUDY, Route [Inhibitor]: ORAL, Species: RAT, Strain/Sex: SPRAGUE-DAWLEY/FEMALE, Target Tissue: Type of Lesion: MAMMARY GLAND: TUMOR, Dose [Carcinogen]: 12 MG IN 1 ML OLIVE OIL ONCE, Promoter: NONE USED); 7/137 (5%), 1/32 (3%), 40%, not calculated (Carcinogen: TRANS-5-AMINO-3-[2-(5-NITRO-2-FURYL)VINYL]-1,2,4-OXADIAZOLE;SQL8506, 28754-68-9, Carcinogen: TRANS-5-AMINO-3-[2-(5-NITRO-2-FURYL)VINYL]-1,2,4-OXADIAZOLE;SQL8506, 28754-68-9, Dose [Inhibitor]: 100 MG/KG 16 HR BEFORE THE 1ST CARCINOGEN DOSE FOLLOWED BY ADDITIONAL DOSES IMMEDIATELY BEFORE EACH DOSE OF CARCINOGEN (, Route [Inhibitor]: INTRAPERITONEAL, Species: MOUSE, Strain/Sex: CD-1/FEMALE, Target Tissue: Type of Lesion: HEMATOPOIETIC SYSTEM: MYELOID LEUKEMIA, Dose [Carcinogen]: 1 G/KG 2/D FOR 5 D EVERY 4 WK, Promoter: NONE USED); 8/137 (6%), 1/32 (3%), 50%, not calculated (Carcinogen: TRANS-5-AMINO-3-[2-(5-NITRO-2-FURYL)VINYL]-1,2,4-OXADIAZOLE;SQL8506, 28754-68-9, Carcinogen: TRANS-5-AMINO-3-[2-(5-NITRO-2-FURYL)VINYL]-1,2,4-OXADIAZOLE;SQL8506, 28754-68-9, Dose [Inhibitor]: 100 MG/KG 16 HR BEFORE THE 1ST CARCINOGEN DOSE FOLLOWED BY ADDITIONAL DOSES IMMEDIATELY BEFORE EACH DOSE OF CARCINOGEN (, Route [Inhibitor]: INTRAPERITONEAL, Species: MOUSE, Strain/Sex: CD-1/FEMALE, Target Tissue: Type of Lesion: LYMPHOID TISSUE: NONTHYMIC LYMPHOMA, Dose [Carcinogen]: 1 G/KG 2/D FOR 5 D EVERY 4 WK, Promoter: NONE USED); 22/137 (16%), 5/32 (16%), 0%, not calculated (Carcinogen: TRANS-5-AMINO-3-[2-(5-NITRO-2-FURYL)VINYL]-1,2,4-OXADIAZOLE;SQL8506, 28754-68-9, Carcinogen: TRANS-5-AMINO-3-[2-(5-NITRO-2-FURYL)VINYL]-1,2,4-OXADIAZOLE;SQL8506, 28754-68-9, Dose [Inhibitor]: 100 MG/KG 16 HR BEFORE THE 1ST CARCINOGEN DOSE FOLLOWED BY ADDITIONAL DOSES IMMEDIATELY BEFORE EACH DOSE OF CARCINOGEN (, Route [Inhibitor]: INTRAPERITONEAL, Species: MOUSE, Strain/Sex: CD-1/FEMALE, Target Tissue: Type of Lesion: LYMPHOID TISSUE: THYMIC LYMPHOMA, Dose [Carcinogen]: 1 G/KG 2/D FOR 5 D EVERY 4 WK, Promoter: NONE USED); 60/137 (44%), 9/32 (28%), 36%, not calculated (Carcinogen: TRANS-5-AMINO-3-[2-(5-NITRO-2-FURYL)VINYL]-1,2,4-OXADIAZOLE;SQL8506, 28754-68-9, Carcinogen: TRANS-5-AMINO-3-[2-(5-NITRO-2-FURYL)VINYL]-1,2,4-OXADIAZOLE;SQL8506, 28754-68-9, Dose [Inhibitor]: 100 MG/KG 16 HR BEFORE THE 1ST CARCINOGEN DOSE FOLLOWED BY ADDITIONAL DOSES IMMEDIATELY BEFORE EACH DOSE OF CARCINOGEN (, Route [Inhibitor]: INTRAPERITONEAL, Species: MOUSE, Strain/Sex: CD-1/FEMALE, Target Tissue: Type of Lesion: STOMACH: SQUAMOUS CARCINOMA, Dose [Carcinogen]: 1 G/KG 2/D FOR 5 D EVERY 4 WK, Promoter: NONE USED).

For `CC(/C=C/C=C(\C)C(=O)O)=C\C=C\C=C(C)\C=C\C=C(/C)C(=O)O`, the “tumour outcome (control, treated, inhibition, significance)” value (Carcinogen: BENZO[A]PYRENE, 50-32-8, Dose [Inhibitor]: 0, 0.2 UMOL IN 0.2 ML ACETONE 2/WK FOR 20 WK ADMINISTERED CONCURRENTLY WITH PROMOTER (STUDY DURATION: 21 WK), Route [Inhibitor]: DERMAL, Species: MOUSE, Strain/Sex: CD-1/FEMALE, Target Tissue: Type of Lesion: SKIN: PAPILLOMA, Dose [Carcinogen]: 20 NMOL IN 0.2 ML ACETONE 1/WK FOR 10 WK, Promoter: 12-O-TETRADECANOYLPHORBOL-13-ACETATE, 16561-29-8) is recorded as 100%, 53%, 47%, not calculated and the “tumour outcome (control, treated, inhibition, significance)” value (Carcinogen: BENZO[A]PYRENE, 50-32-8, Dose [Inhibitor]: 0, 1 UMOL IN 0.2 ML ACETONE 2/WK FOR 20 WK ADMINISTERED CONCURRENTLY WITH PROMOTER (STUDY DURATION: 21 WK), Route [Inhibitor]: DERMAL, Species: MOUSE, Strain/Sex: CD-1/FEMALE, Target Tissue: Type of Lesion: SKIN: PAPILLOMA, Dose [Carcinogen]: 20 NMOL IN 0.2 ML ACETONE 1/WK FOR 10 WK, Promoter: 12-O-TETRADECANOYLPHORBOL-13-ACETATE, 16561-29-8) is reported as 100%, 28%, 72%, not calculated.
